{
  "source": "paper PMC5218480",
  "about": "(PLoS ONE, 2017)",
  "tested_on": "MV-4-11 cells",
  "test": "Gene expression microarray analysis (Affymetrix PrimeView) and GSEA",
  "format": "cell-based, human",
  "design": "RFU PODN (11730768_x_at) / Fold change /veh PODN (11730768_x_at) / RFU LINC00158 (11744669_a_at) / Fold change /veh LINC00158 (11744669_a_at) / RFU DUSP10 (11751237_a_at) / Fold change /veh DUSP10 (11751237_a_at) / RFU ID3 (11757404_x_at) / Fold change /veh ID3 (11757404_x_at) / RFU PLEKHG5 (11737974_s_at) / Fold change /veh PLEKHG5 (11737974_s_at) / RFU LRRC4B (11730491_at) / Fold change /veh LRRC4B (11730491_at) / RFU GIMAP4 (11747438_a_at) / Fold change /veh GIMAP4 (11747438_a_at) / RFU KRT8 (11758183_x_at) / Fold change /veh KRT8 (11758183_x_at) / RFU CNN1 (11734310_a_at) / Fold change /veh CNN1 (11734310_a_at) / RFU VPS37D (11726825_at) / Fold change /veh VPS37D (11726825_at) / RFU C10orf10 (11716522_x_at) / Fold change /veh C10orf10 (11716522_x_at) / RFU KIR2DL2 /// KIR2DL4 /// KIR2DL5A /// KIR2DL5B /// KIR2DS1 /// KIR2DS2 /// KIR2DS3 /// KIR2DS4 /// KIR3DL3 /// KIR3DL3 /// KIR3DS1 (11738374_at) / Fold change /veh KIR2DL2 /// KIR2DL4 /// KIR2DL5A /// KIR2DL5B /// KIR2DS1 /// KIR2DS2 /// KIR2DS3 /// KIR2DS4 /// KIR3DL3 /// KIR3DL3 /// KIR3DS1 (11738374_at) / RFU C1QL1 (11718748_at) / Fold change /veh C1QL1 (11718748_at) / RFU TMPRSS4 (11747572_a_at) / Fold change /veh TMPRSS4 (11747572_a_at) / RFU HAMP (11756126_x_at) / Fold change /veh HAMP (11756126_x_at) / RFU RNFT2 (11725882_a_at) / Fold change /veh RNFT2 (11725882_a_at) / RFU NR4A2 (11747474_a_at) / Fold change /veh NR4A2 (11747474_a_at) / RFU ABCC12 (11746883_a_at) / Fold change /veh ABCC12 (11746883_a_at) / RFU TMEM136 (11760407_x_at) / Fold change /veh TMEM136 (11760407_x_at) / RFU CLDN22 /// WWC2 (11732394_at) / Fold change /veh CLDN22 /// WWC2 (11732394_at) / RFU HLA-DPB1 (11760878_x_at) / Fold change /veh HLA-DPB1 (11760878_x_at) / RFU SPINT1 (11716480_a_at) / Fold change /veh SPINT1 (11716480_a_at) / RFU GAP43 (11754022_s_at) / Fold change /veh GAP43 (11754022_s_at) / RFU A4GNT (11735810_at) / Fold change /veh A4GNT (11735810_at) / RFU PRB3 (11715151_x_at) / Fold change /veh PRB3 (11715151_x_at) / RFU TUBB4B (11761932_at) / Fold change /veh TUBB4B (11761932_at) / RFU CAPN14 (11732068_a_at) / Fold change /veh CAPN14 (11732068_a_at) / RFU TMCC2 (11721928_a_at) / Fold change /veh TMCC2 (11721928_a_at) / RFU IRGQ (11745062_a_at) / Fold change /veh IRGQ (11745062_a_at) / RFU FAM174B (11720279_a_at) / Fold change /veh FAM174B (11720279_a_at) / RFU TMPRSS4 (11748680_a_at) / Fold change /veh TMPRSS4 (11748680_a_at) / RFU FAM212B (11763350_a_at) / Fold change /veh FAM212B (11763350_a_at) / RFU PLEKHG5 (11743358_a_at) / Fold change /veh PLEKHG5 (11743358_a_at) / RFU ZSCAN30 (11745921_a_at) / Fold change /veh ZSCAN30 (11745921_a_at) / RFU CMKLR1 (11741424_a_at) / Fold change /veh CMKLR1 (11741424_a_at) / RFU LOC101060620 /// MAPK8IP1 (11723275_at) / Fold change /veh LOC101060620 /// MAPK8IP1 (11723275_at) / RFU SPTSSB (11747773_x_at) / Fold change /veh SPTSSB (11747773_x_at) / RFU PRSS12 (11739890_at) / Fold change /veh PRSS12 (11739890_at) / RFU BIN1 (11741810_x_at) / Fold change /veh BIN1 (11741810_x_at) / RFU WNT11 (11732464_a_at) / Fold change /veh WNT11 (11732464_a_at) / RFU C10orf10 (11716521_a_at) / Fold change /veh C10orf10 (11716521_a_at) / RFU C5orf56 (11738089_at) / Fold change /veh C5orf56 (11738089_at) / RFU CYB561 (11721691_x_at) / Fold change /veh CYB561 (11721691_x_at) / RFU ANKRD19P (11752326_a_at) / Fold change /veh ANKRD19P (11752326_a_at) / RFU OR2T12 /// OR2T33 /// OR2T8 (11738714_s_at) / Fold change /veh OR2T12 /// OR2T33 /// OR2T8 (11738714_s_at) / RFU VCAN (11748164_a_at) / Fold change /veh VCAN (11748164_a_at) / RFU JSRP1 (11732532_at) / Fold change /veh JSRP1 (11732532_at) / RFU KRTAP10-11 (11738290_x_at) / Fold change /veh KRTAP10-11 (11738290_x_at) / RFU MYO3A (11730013_a_at) / Fold change /veh MYO3A (11730013_a_at) / RFU EBF3 (11725865_a_at) / Fold change /veh EBF3 (11725865_a_at) / RFU CAMK2N1 (11719241_x_at) / Fold change /veh CAMK2N1 (11719241_x_at) / RFU C5orf56 (11738088_a_at) / Fold change /veh C5orf56 (11738088_a_at) / RFU OLFML3 (11715873_a_at) / Fold change /veh OLFML3 (11715873_a_at) / RFU LOC100653217 /// NTM (11731650_a_at) / Fold change /veh LOC100653217 /// NTM (11731650_a_at) / RFU MAPK11 (11762145_a_at) / Fold change /veh MAPK11 (11762145_a_at) / RFU FIZ1 (11724087_x_at) / Fold change /veh FIZ1 (11724087_x_at) / RFU OASL (11726364_x_at) / Fold change /veh OASL (11726364_x_at) / RFU SOX15 (11748057_x_at) / Fold change /veh SOX15 (11748057_x_at) / RFU CD79A (11719716_a_at) / Fold change /veh CD79A (11719716_a_at) / RFU HIST1H1D (11736915_at) / Fold change /veh HIST1H1D (11736915_at) / RFU CASKIN2 (11723855_a_at) / Fold change /veh CASKIN2 (11723855_a_at) / RFU LOC730098 (11760151_x_at) / Fold change /veh LOC730098 (11760151_x_at) / RFU OR4N2 (11742367_at) / Fold change /veh OR4N2 (11742367_at) / RFU PRRT2 (11749266_a_at) / Fold change /veh PRRT2 (11749266_a_at) / RFU SNX32 (11753110_a_at) / Fold change /veh SNX32 (11753110_a_at) / RFU CDHR5 (11726645_a_at) / Fold change /veh CDHR5 (11726645_a_at) / RFU RCAN1 (11760418_a_at) / Fold change /veh RCAN1 (11760418_a_at) / RFU FAM167A (11723789_a_at) / Fold change /veh FAM167A (11723789_a_at) / RFU FAM26E (11764081_at) / Fold change /veh FAM26E (11764081_at) / RFU ISYNA1 (11749810_s_at) / Fold change /veh ISYNA1 (11749810_s_at) / RFU ACY1 (11761880_at) / Fold change /veh ACY1 (11761880_at) / RFU 11764098_at / Fold change /veh 11764098_at / RFU SAMD14 (11745864_x_at) / Fold change /veh SAMD14 (11745864_x_at) / RFU NPB (11741838_a_at) / Fold change /veh NPB (11741838_a_at) / RFU TMPRSS6 (11731388_a_at) / Fold change /veh TMPRSS6 (11731388_a_at) / RFU KRTAP10-2 (11738614_at) / Fold change /veh KRTAP10-2 (11738614_at) / RFU ARHGAP8 /// PRR5-ARHGAP8 (11727945_x_at) / Fold change /veh ARHGAP8 /// PRR5-ARHGAP8 (11727945_x_at) / RFU KRTAP5-7 /// NADSYN1 (11734609_at) / Fold change /veh KRTAP5-7 /// NADSYN1 (11734609_at) / RFU RASL12 (11751679_a_at) / Fold change /veh RASL12 (11751679_a_at) / RFU CDKN2B (11736163_a_at) / Fold change /veh CDKN2B (11736163_a_at) / RFU PRF1 (11729649_at) / Fold change /veh PRF1 (11729649_at) / RFU, ZNF638 /// ZNF638-IT1 / Fold change vs veh, ZNF638 /// ZNF638-IT1 / RFU, PANK3 / Fold change vs veh, PANK3 / RFU, SH3YL1 / Fold change vs veh, SH3YL1 / RFU, ZEB2 / Fold change vs veh, ZEB2 / RFU, NRIP1 / Fold change vs veh, NRIP1 / RFU, PTTG1IP / Fold change vs veh, PTTG1IP / RFU, CAPN2 / Fold change vs veh, CAPN2 / RFU, MED14 / Fold change vs veh, MED14 / RFU, SNORA58 / Fold change vs veh, SNORA58 / RFU, C1orf63 / Fold change vs veh, C1orf63 / RFU, LRRFIP1 / Fold change vs veh, LRRFIP1 / RFU, NDUFAF7 / Fold change vs veh, NDUFAF7 / RFU, SLC12A2 / Fold change vs veh, SLC12A2 / RFU, IBTK / Fold change vs veh, IBTK / RFU, ESF1 / Fold change vs veh, ESF1 / Fold change vs veh, TMEM50B / RFU, TAOK1 / Fold change vs veh, TAOK1 / RFU, ACBD3 / Fold change vs veh, ACBD3 / RFU, TMA16 / Fold change vs veh, TMA16 / RFU, RWDD3 / Fold change vs veh, RWDD3 / RFU, BCAT1 / Fold change vs veh, BCAT1 / RFU, EDEM3 / Fold change vs veh, EDEM3 / RFU, TMEM33 / Fold change vs veh, TMEM33 / RFU, WDR75 / Fold change vs veh, WDR75 / RFU, AHCTF1 / Fold change vs veh, AHCTF1 / RFU, TFRC / Fold change vs veh, TFRC / RFU, ZDHHC17 / Fold change vs veh, ZDHHC17 / RFU, NOM1 / Fold change vs veh, NOM1 / RFU, ARL8B / Fold change vs veh, ARL8B / RFU, ZBTB11 / Fold change vs veh, ZBTB11 / RFU, TAMM41 / Fold change vs veh, TAMM41 / RFU, KIAA1704 /// LOC100996395 / Fold change vs veh, KIAA1704 /// LOC100996395 / RFU, ING1 / Fold change vs veh, ING1 / RFU, TRMT61B / Fold change vs veh, TRMT61B / RFU, FUBP3 / Fold change vs veh, FUBP3 / RFU, TP53 / Fold change vs veh, TP53 / RFU, TNKS2 / Fold change vs veh, TNKS2 / RFU, ZFP14 / Fold change vs veh, ZFP14 / RFU, ACTR2 / Fold change vs veh, ACTR2 / RFU, PPP3R1 / Fold change vs veh, PPP3R1 / RFU, PIK3R1 / Fold change vs veh, PIK3R1 / RFU, HNRNPA1 / Fold change vs veh, HNRNPA1 / RFU, RNF170 / Fold change vs veh, RNF170 / RFU, ZNF28 / Fold change vs veh, ZNF28 / RFU, RNGTT / Fold change vs veh, RNGTT / RFU, OGT / Fold change vs veh, OGT / RFU, BRD1 / Fold change vs veh, BRD1 / RFU, MARS / Fold change vs veh, MARS / RFU, ZNF655 / Fold change vs veh, ZNF655 / RFU, FAHD1 / Fold change vs veh, FAHD1 / RFU, BDP1 / Fold change vs veh, BDP1 / RFU, LRRCC1 / Fold change vs veh, LRRCC1 / RFU, ARID1A / Fold change vs veh, ARID1A / RFU, ZNF146 / Fold change vs veh, ZNF146 / RFU, ZNF330 / Fold change vs veh, ZNF330 / RFU, GPN3 / Fold change vs veh, GPN3 / RFU, C9orf123 / Fold change vs veh, C9orf123 / RFU, N4BP2L2 / Fold change vs veh, N4BP2L2 / RFU, ARFIP1 / Fold change vs veh, ARFIP1 / RFU, FAM179B / Fold change vs veh, FAM179B / RFU, BCL10 / Fold change vs veh, BCL10 / RFU, UHRF1BP1L / Fold change vs veh, UHRF1BP1L / RFU, BET1 / Fold change vs veh, BET1 / RFU, CNOT2 / Fold change vs veh, CNOT2 / RFU, ZNF268 / Fold change vs veh, ZNF268 / Fold change vs veh, ZNF507 / RFU, DGCR2 / Fold change vs veh, DGCR2 / RFU, WDSUB1 / Fold change vs veh, WDSUB1 / Fold change vs veh, HSP90B1 /// MIR3652 / RFU, ADSS / Fold change vs veh, ADSS / RFU, GK / Fold change vs veh, GK / RFU, ZNF148 / Fold change vs veh, ZNF148 / RFU, TAF9 / Fold change vs veh, TAF9 / RFU, SLC1A5 / Fold change vs veh, SLC1A5 / RFU, SLMO2 / Fold change vs veh, SLMO2 / RFU, ABCC4 / Fold change vs veh, ABCC4 / RFU, LOC101060439 /// RAP1B / Fold change vs veh, LOC101060439 /// RAP1B / RFU, RFX7 / Fold change vs veh, RFX7 / RFU, GTPBP10 / Fold change vs veh, GTPBP10 / RFU, CNEP1R1 / Fold change vs veh, CNEP1R1 / RFU, BIVM-ERCC5 /// ERCC5 / Fold change vs veh, BIVM-ERCC5 /// ERCC5 / RFU, ILF3 / Fold change vs veh, ILF3 / RFU 11762660_at / Fold change /veh 11762660_at / RFU VCAN (11757783_s_at) / Fold change /veh VCAN (11757783_s_at) / RFU DDX43 (11728927_at) / Fold change /veh DDX43 (11728927_at) / RFU KRT8 (11758188_x_at) / Fold change /veh KRT8 (11758188_x_at) / RFU NKD1 (11759106_at) / Fold change /veh NKD1 (11759106_at) / RFU SRD5A1 (11742802_a_at) / Fold change /veh SRD5A1 (11742802_a_at) / RFU TPSAB1 /// TPSB2 (11721975_s_at) / Fold change /veh TPSAB1 /// TPSB2 (11721975_s_at) / RFU GSTM3 (11746129_a_at) / Fold change /veh GSTM3 (11746129_a_at) / RFU IL23R (11737362_x_at) / Fold change /veh IL23R (11737362_x_at) / RFU TMEM51 (11727254_a_at) / Fold change /veh TMEM51 (11727254_a_at) / RFU PIWIL2 (11732686_x_at) / Fold change /veh PIWIL2 (11732686_x_at) / RFU ORM1 (11744905_x_at) / Fold change /veh ORM1 (11744905_x_at) / RFU CCDC152 (11743942_at) / Fold change /veh CCDC152 (11743942_at) / RFU ECM1 (11717891_a_at) / Fold change /veh ECM1 (11717891_a_at) / RFU IL23R (11748794_a_at) / Fold change /veh IL23R (11748794_a_at) / RFU TNFAIP8L3 (11732012_x_at) / Fold change /veh TNFAIP8L3 (11732012_x_at) / RFU MBOAT4 (11741988_at) / Fold change /veh MBOAT4 (11741988_at) / RFU 11764193_at / Fold change /veh 11764193_at / RFU TMEM53 (11763286_at) / Fold change /veh TMEM53 (11763286_at) / RFU MAGEB2 (11727129_at) / Fold change /veh MAGEB2 (11727129_at) / RFU TMEM200A (11744735_a_at) / Fold change /veh TMEM200A (11744735_a_at) / RFU CCDC152 (11751479_a_at) / Fold change /veh CCDC152 (11751479_a_at) / RFU FAM211A (11726209_a_at) / Fold change /veh FAM211A (11726209_a_at) / RFU RGS16 (11746705_a_at) / Fold change /veh RGS16 (11746705_a_at) / RFU VCAN (11755009_s_at) / Fold change /veh VCAN (11755009_s_at) / RFU RHOB (11743442_s_at) / Fold change /veh RHOB (11743442_s_at) / RFU RGS16 (11720943_a_at) / Fold change /veh RGS16 (11720943_a_at) / RFU RGS16 (11720944_at) / Fold change /veh RGS16 (11720944_at) / RFU, VPS4B / Fold change vs veh, VPS4B / RFU, CREB1 / Fold change vs veh, CREB1 / RFU, DNAJC13 / Fold change vs veh, DNAJC13 / RFU, GNAQ / Fold change vs veh, GNAQ / RFU, CDK5R1 / Fold change vs veh, CDK5R1 / RFU, ZRANB3 / Fold change vs veh, ZRANB3 / RFU, CUL4A / Fold change vs veh, CUL4A / RFU, CCNY / Fold change vs veh, CCNY / RFU, UFL1 / Fold change vs veh, UFL1 / RFU, COG3 / Fold change vs veh, COG3 / RFU, DIAPH2 / Fold change vs veh, DIAPH2 / RFU, SKA2 / Fold change vs veh, SKA2 / RFU, AFF3 / Fold change vs veh, AFF3 / RFU, LMF1 / Fold change vs veh, LMF1 / RFU, IPO11 / Fold change vs veh, IPO11 / RFU, DFFB / Fold change vs veh, DFFB / RFU, FOXP1 / Fold change vs veh, FOXP1 / RFU, CARD8 / Fold change vs veh, CARD8 / RFU, STRN3 / Fold change vs veh, STRN3 / RFU, ADK / Fold change vs veh, ADK / RFU, RASSF2 / Fold change vs veh, RASSF2 / RFU, WIPF1 / Fold change vs veh, WIPF1 / RFU, LARP1B / Fold change vs veh, LARP1B / RFU, RASA1 / Fold change vs veh, RASA1 / RFU, RB1 / Fold change vs veh, RB1 / RFU, PPFIA1 / Fold change vs veh, PPFIA1 / RFU, MAT2A / Fold change vs veh, MAT2A / RFU, CCT5 / Fold change vs veh, CCT5 / RFU, WDR92 / Fold change vs veh, WDR92 / RFU, CUX1 / Fold change vs veh, CUX1 / RFU, TTC7A / Fold change vs veh, TTC7A / RFU, TMEM135 / Fold change vs veh, TMEM135 / RFU, DEPTOR / Fold change vs veh, DEPTOR / RFU, CPM / Fold change vs veh, CPM / RFU, DNAJB6 / Fold change vs veh, DNAJB6 / RFU, CACNA2D3 / Fold change vs veh, CACNA2D3 / RFU, DTX4 / Fold change vs veh, DTX4 / RFU, TFCP2 / Fold change vs veh, TFCP2 / RFU, GMCL1 /// GMCL1P1 / Fold change vs veh, GMCL1 /// GMCL1P1 / RFU, AEBP2 / Fold change vs veh, AEBP2 / RFU, SNHG1 /// SNORD22 /// SNORD25 /// SNORD26 /// SNORD27 /// SNORD28 /// SNORD29 /// SNORD31 / Fold change vs veh, SNHG1 /// SNORD22 /// SNORD25 /// SNORD26 /// SNORD27 /// SNORD28 /// SNORD29 /// SNORD31 / Fold change (Aza/veh), C12orf56 (ProbeSet 11735607_a_at) / Fold change (ACY-1035/veh), C12orf56 (ProbeSet 11735607_a_at) / Fold change (Aza/veh), FGFR1OP (ProbeSet 11751329_s_at) / Fold change (ACY-1035/veh), FGFR1OP (ProbeSet 11751329_s_at) / Fold change (Aza/veh), VPS36 (ProbeSet 11739960_a_at) / Fold change (ACY-1035/veh), VPS36 (ProbeSet 11739960_a_at) / RFU SYPL1 (11715823_x_at) / Fold change /veh SYPL1 (11715823_x_at) / RFU IGFBP7 (11715501_s_at) / Fold change /veh IGFBP7 (11715501_s_at) / RFU REEP3 (11722064_at) / Fold change /veh REEP3 (11722064_at) / RFU IGLL1 (11728026_x_at) / Fold change /veh IGLL1 (11728026_x_at): dose or concentration left out as unconfirmed",
  "conditions": "ProbeSet 11763166_a_at; LIST B",
  "data": [
    {"smiles": "Nc1ccc(-c2cccs2)cc1NC(=O)c1ccc2c(c1)cc(C1CC1)n2CCN1CCOCC1", "note": "[ACY-1035]", "values": [
      {"measurement": "RFU, MARS", "result": 48.43, "unit": "RFU"}
    ]}
  ]
}
